Among the targets are VcGluP Y200A (Vibrio cholerae, UniProt Q9KUT5, Y200A); VcGluP M201A (Vibrio cholerae, UniProt Q9KUT5, M201A); VcGluP Q93A (Vibrio cholerae, UniProt Q9KUT5, Q93A); VcGluP Y45A (Vibrio cholerae, UniProt Q9KUT5, Y45A); VcGluP E125A (Vibrio cholerae, UniProt Q9KUT5, E125A); VcGluP S75A (Vibrio cholerae, UniProt Q9KUT5, S75A).
Format in all cases: binding
The target of assay [1] is T1, VC0430 (VcGluP) wildtype (Vibrio cholerae, UniProt Q9KUT5).
Assay [2] deals with T1, VC0430 (VcGluP) wildtype. Kind of assay: biochemical.

SMILES strings stand for the structures. “And” between values parts separate entries of the source, which are not always exact repeats. Equal entries are not always repeated. A value given as a limit tells only on which side of the number the result lay.

With `NC(=O)CCC(N)C(=O)O` (stereo in doubt) [D-glutamine], on VC0430 (VcGluP) wildtype [1], the “Average Tm” value was 46.40 °C and 47.06 °C and 48.72 °C; the “Tm Replicate 1” value was 46.73 °C and 46.72 °C and 48.72 °C; the “Tm Replicate 2” value is 45.74 °C and 47.72 °C and 48.72 °C; the “Tm Replicate 3” value was 46.73 °C (2×) and 48.72 °C. For the same compound, at VC0430 (VcGluP) wildtype [2], the “fluorescence enhancement in titration (Kd could not be determined)” value was “lack of fluorescence enhancement”.

Regarding `N[C@H](CCC(=O)O)C(=O)O` [D-glutamate], on VC0430 (VcGluP) wildtype [1], the “Average Tm” value was found to be 58.65 °C, the “Tm Replicate 1” value amounted to 58.65 °C, the “Tm Replicate 2” value worked out at 58.65 °C and the “Tm Replicate 3” value was found to be 58.65 °C. Also, binding on VC0430 (VcGluP) wildtype [2] was put at a Kd of 24.5 ± 10.6 µM.

With `N[C@@H](CC(=O)O)C(=O)O` [L-aspartate], on VC0430 (VcGluP) wildtype [1], the “Average Tm” value was determined as 47.06 °C, the “Tm Replicate 1” value is 47.72 °C, the “Tm Replicate 2” value is 45.74 °C and the “Tm Replicate 3” value was 47.73 °C. Besides, the “change in VC0430's Tm (Tm increase)” value at VC0430 (VcGluP) wildtype [1] is “no change”.

Take `N[C@@H](CCC(=O)O)C(=O)O` [L-glutamate]: the “ligand concentration giving maximum fluorescence enhancement” value on VcGluP Y200A, on VcGluP M201A, on VcGluP Y45A, on VcGluP E125A and at VcGluP S75A was not above 50 µM in each case. Moreover, the dissociation constant (Kd) (usually the constant that tells how readily two partners part at equilibrium) at VC0430 (VcGluP) wildtype [2] was 0.065 ± 0.031 µM. For the same compound, the “ligand concentration needed to saturate fluorescence enhancement” value at VcGluP Q93A was “a higher concentration was required”.

Turning to `NC(=O)CC[C@H](N)C(=O)O` [L-glutamine], the “Tm Replicate 2” value at VC0430 (VcGluP) wildtype [1] is 50.70 °C and 53.68 °C and 55.67 °C and 50.71 °C. On VC0430 (VcGluP) wildtype [2], this compound gave a dissociation constant (Kd) of 11 ± 2 µM.

With `NCCCC[C@H](N)C(=O)O` [L-lysine], on VC0430 (VcGluP) wildtype [1], the “Average Tm” value is 44.41 °C, the “Tm Replicate 1” value came to 43.75 °C, the “Tm Replicate 2” value came out at 44.74 °C and the “Tm Replicate 3” value was 44.74 °C. For the same compound, the “change in VC0430's Tm (Tm increase)” value at VC0430 (VcGluP) wildtype [1] is recorded as “no change”.

On to `O=C(O)[C@@H]1CCC(O)=N1` [L-pyroglutamate], for which the “effect on VcGluP's stability (DSF)” value on VC0430 (VcGluP) wildtype [1] is given as “enhanced VcGluP’s stability in a dose-dependent manner”. Also, at VC0430 (VcGluP) wildtype [2], the equilibrium dissociation constant (Kd) is 50 ± 16 µM.

Regarding `O=C(O)CCCCC(=O)O` [adipate], at VC0430 (VcGluP) wildtype [1], the “Average Tm” value came to 44.74 °C, the “Tm Replicate 1” value stood at 43.75 °C, the “Tm Replicate 2” value amounted to 45.74 °C and the “Tm Replicate 3” value is 44.74 °C. Also, the “change in VC0430's Tm (Tm increase)” value at VC0430 (VcGluP) wildtype [1] is “no change”.

As for `O=C(O)CCC(=O)C(=O)O` [α-ketoglutarate], at VC0430 (VcGluP) wildtype [1], the “Average Tm” value worked out at 47.39 °C, the “Tm Replicate 1” value was 50.71 °C, the “Tm Replicate 2” value came out at 45.74 °C and the “Tm Replicate 3” value amounted to 45.74 °C. Further, the “change in VC0430's Tm (Tm increase)” value at VC0430 (VcGluP) wildtype [1] was “no change”.

The values above are taken from paper PMC11574862 (The Journal of General Physiology, 2024).
